Results on six compounds are retold here after publication PMC7235792, “Effect of the Most Relevant CYP3A4 and CYP3A5 Polymorphisms on the Pharmacokinetic Parameters of 10 CYP3A Substrates” (Biomedicines, 2020).

For series [1] the following is noted: human, in vivo.
The conditions of series [2]: CYP3A5 *1/*1 subjects compared to *1/*3 and *3/*3; population PK model; cited from earlier work.

For the compound `COC(c1ccccc1)(c1ccccc1)[C@H](Oc1nc(C)cc(C)n1)C(=O)O` [ambrisentan], in series [1], the “association of CYP3A polymorphisms with PK parameters” value (from here on “association of CYP3A polymorphisms”) is recorded as “no significant association” and the “influence of CYP3A4 or CYP3A5 polymorphisms on elimination” value was “it does not appear that CYP3A4 or CYP3A5 polymorphisms influence its elimination”.
For the compound `CCOC(=O)C1=C(COCCN)NC(C)=C(C(=O)OC)C1c1ccccc1Cl` (centres unmarked) [amlodipine], the “AUC in CYP3A5 PM” value in series [1] is “higher AUC”.
Regarding `O=C1CCc2ccc(OCCCCN3CCN(c4cccc(Cl)c4Cl)CC3)cc2N1` [aripiprazole], the “association of CYP3A polymorphisms” value in series [1] is reported as “no significant association”.
`CC(C)C(=O)Oc1ccc(CO)cc1[C@H](CCN(C(C)C)C(C)C)c1ccccc1` [fesoterodine]: in series [1], the “AUC in CYP3A4 mutated alleles carriers (tendency)” value is reported as “lower AUC” and the “Cl in CYP3A4 mutated alleles carriers (tendency)” value is listed as “higher Cl”.
As to `Cc1cc2c(s1)Nc1ccccc1N=C2N1CCN(C)CC1` [olanzapine], the “association of CYP3A polymorphisms” value in series [1] is “no significant association”.
Turning to `OCCOCCN1CCN(C2=Nc3ccccc3Sc3ccccc32)CC1` [quetiapine], in series [2], the “increased Cl” value was 29%.
